Source: ChEMBL document CHEMBL1153321, “Approaches to the simultaneous inactivation of metallo- and serine-beta-lactamases” (Bioorg Med Chem Lett, 2009)

What was measured:
Enterobacter cloacae [1] = test: Activity of Enterobacter cloacae beta-lactamase OXA-1
Enterobacter cloacae [2] = test: Ratio of Kcat to Km of Enterobacter cloacae beta-lactamase OXA-1
[3] = biological target: Beta-lactamase TEM (Enterobacter cloacae) (UniProt Q6W9J1); test: Ratio of Kcat to Km of Enterobacter cloacae beta-lactamase TEM-1
Beta-lactamase TEM (Enterobacter cloacae), sequence (Q6W9J1 as listed by the source): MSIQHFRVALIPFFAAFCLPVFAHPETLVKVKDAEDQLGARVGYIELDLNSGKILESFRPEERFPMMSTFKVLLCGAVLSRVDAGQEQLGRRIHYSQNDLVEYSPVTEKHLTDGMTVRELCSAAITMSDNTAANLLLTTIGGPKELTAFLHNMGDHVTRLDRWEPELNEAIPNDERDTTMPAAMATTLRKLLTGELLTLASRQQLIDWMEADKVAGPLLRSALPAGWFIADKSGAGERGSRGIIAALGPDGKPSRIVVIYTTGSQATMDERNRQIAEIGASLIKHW

Question: `CC(=O)OCC1=C(C(=O)O)N2C(=O)/C(=N/O)[C@H]2SC1` was tested. Which Km (Enterobacter cloacae [1]) did it give?
Answer: > 400 µM

Question: What about the Ratio (Enterobacter cloacae [2]) of the same molecule?
Answer: 88 s⁻¹ M⁻¹

Question: What about the Ratio [3] of the same molecule?
Answer: 158 s⁻¹ M⁻¹

Question: What does the source list for `CC(=O)OCC1=C(C(=O)O)N2C(=O)[C@@H](NO)[C@H]2SC1`?
Answer: Km (Enterobacter cloacae [1]): > 400 µM; Ratio (Enterobacter cloacae [2]): 66 s⁻¹ M⁻¹; Ratio [3]: 2620 s⁻¹ M⁻¹

Question: What does the source list for `CC(=O)OCC1=C(C(=O)O)N2C(=O)/C(=N/O)[C@H]2S(=O)(=O)C1`?
Answer: Km (Enterobacter cloacae [1]): > 400 µM; Ratio (Enterobacter cloacae [2]): 990 s⁻¹ M⁻¹; Ratio [3]: 1690 s⁻¹ M⁻¹

Question: Which results are given for `CC(=O)OCC1=C(C(=O)O)N2C(=O)[C@@H](NC=O)[C@H]2SC1`?
Answer: Km (Enterobacter cloacae [1]): 323 µM; kcat (Enterobacter cloacae [1]): 1.02 s⁻¹; Ratio (Enterobacter cloacae [2]): 3160 s⁻¹ M⁻¹; Ratio [3]: 6 ×10⁴ /s/M

Question: With `CC(=O)OCC1=C(C(=O)O)N2C(=O)[C@@H](N(O)C=O)[C@H]2SC1` as the molecule, how does the Km (Enterobacter cloacae [1]) read?
Answer: > 400 µM

Question: What about the Ratio (Enterobacter cloacae [2]) of the same molecule?
Answer: 75 s⁻¹ M⁻¹

Question: And the Ratio [3]?
Answer: 25 s⁻¹ M⁻¹

Question: For `CC(=O)OCC1=C(C(=O)O)N2C(=O)[C@@H](NC(=O)Cc3cccs3)[C@H]2SC1`, which Km (Enterobacter cloacae [1]) is on record?
Answer: 13.9 µM

Question: What about the kcat (Enterobacter cloacae [1]) of the same molecule?
Answer: 1.81 s⁻¹

Question: And the Ratio (Enterobacter cloacae [2])?
Answer: 8.51 ×10⁴ /s/M

Question: What about the Ratio [3] of the same molecule?
Answer: 4.85 ×10⁵ /s/M

Question: `CC1=C(C(=O)O)N2C(=O)/C(=N/O)[C@H]2S(=O)(=O)C1` was tested. Which Ratio [3] did it give?
Answer: 40 s⁻¹ M⁻¹

Question: Which results are given for `CC(=O)OCC1=C(C(=O)O)N2C(=O)[C@@H](N(O)C(=O)Cc3ccccc3)[C@H]2SC1`?
Answer: Km (Enterobacter cloacae [1]): 60 µM; kcat (Enterobacter cloacae [1]): 0.121 s⁻¹; Ratio (Enterobacter cloacae [2]): 2020 s⁻¹ M⁻¹; Ratio [3]: 2620 s⁻¹ M⁻¹
